Assay results as given in paper PMC9910440, “NADP(H)-dependent biocatalysis without adding NADP(H)” (Proceedings of the National Academy of Sciences of the …, 2022).

Experiments:
[1] = target: T1, IDH1 (isocitrate dehydrogenase 1) (Homo sapiens, UniProt O75874); assay: 1H NMR of cofactor released by thermal denaturation; native MS; electrochemical retention; type: binding; conditions: copurified; resting state, no substrate; part of a NADP+/NADPH mixture
T1 construct: recombinant, purified; copurifies with NADP(H)

[2] = target: T2, IDH1 (isocitrate dehydrogenase 1) (Homo sapiens, UniProt O75874, R132H); assay: non-denaturing mass spectrometry; 1H NMR after denaturation; type: binding; conditions: copurified; NMR identifies NADPH only; resting state, no substrate
T2 construct: recombinant, purified; copurifies with NADP(H)

[3] = target: T2, IDH1 (isocitrate dehydrogenase 1); assay: electrochemical retention after buffer exchange and potential switch; type: biochemical; conditions: nanoconfined with FNR; resting state; binds much less tightly than NADPH; pH 8, 10 mM MgCl2
[4] = target: T3, Ferredoxin NADP+ reductase (FNR) (Chlamydomonas reinhardtii, UniProt P53991); assay: 1H NMR of cofactor released by denaturation; type: binding; conditions: prosthetic group
T3 construct: gene PETH; recombinant, purified; 39 kDa; FAD flavoprotein
T3 sequence (P53991 36-354): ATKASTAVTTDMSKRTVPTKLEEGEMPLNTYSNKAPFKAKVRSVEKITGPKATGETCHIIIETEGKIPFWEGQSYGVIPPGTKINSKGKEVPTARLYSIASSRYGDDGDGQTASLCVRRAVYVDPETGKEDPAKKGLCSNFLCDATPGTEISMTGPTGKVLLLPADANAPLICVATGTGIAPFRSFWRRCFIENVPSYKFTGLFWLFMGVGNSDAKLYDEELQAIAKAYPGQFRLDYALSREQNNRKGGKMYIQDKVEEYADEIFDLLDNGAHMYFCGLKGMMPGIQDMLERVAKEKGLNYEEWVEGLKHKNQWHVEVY

T1 sequence (O75874 whole entry): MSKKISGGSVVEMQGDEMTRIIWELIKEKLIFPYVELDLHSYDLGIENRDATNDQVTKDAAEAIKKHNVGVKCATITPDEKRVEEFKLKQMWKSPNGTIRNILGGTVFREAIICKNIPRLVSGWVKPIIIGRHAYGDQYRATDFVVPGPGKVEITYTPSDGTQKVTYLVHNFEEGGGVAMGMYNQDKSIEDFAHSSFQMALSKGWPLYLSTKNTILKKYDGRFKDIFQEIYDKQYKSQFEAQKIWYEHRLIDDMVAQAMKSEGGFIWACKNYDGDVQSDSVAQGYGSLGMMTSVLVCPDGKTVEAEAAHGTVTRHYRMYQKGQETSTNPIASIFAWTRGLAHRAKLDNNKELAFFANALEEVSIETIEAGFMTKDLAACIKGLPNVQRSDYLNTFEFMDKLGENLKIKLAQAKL
T2 sequence (O75874 whole entry R132H): as the sequence (O75874 whole entry) above, with R132H counted along it

| NADP(H) active site occupancy [2] | Compound | 1H NMR of cofactor released by thermal denaturation; native MS; electrochemical [1] | electrochemical retention after buffer exchange and potential switch [3] | 1H NMR of cofactor released by denaturation [4] |
| --- | --- | --- | --- | --- |
| ~ 97.5% | NC(=O)C1=CN([C@@H]2O[C@H](COP(=O)(O)OP(=O)(O)OC[C@H]3O[C@@H](n4cnc5c(N)ncnc54)[C@H](OP(=O)(O)O)[C@@H]3O)[C@@H](O)[C@H]2O)C=CC1 [NADPH] | wild-type IDH1 (Fig. 1A) copurified with a mixture of NADP^+ and NADPH bound | – | – |
| – | NC(=O)c1ccc[n+]([C@@H]2O[C@H](COP(=O)(O)OP(=O)(O)OC[C@H]3O[C@@H](n4cnc5c(N)ncnc54)[C@H](OP(=O)(O)O)[C@@H]3O)[C@@H](O)[C@H]2O)c1 [NADP^+] | wild-type IDH1 (Fig. 1A) copurified with a mixture of NADP^+ and NADPH bound | IDH1 R132H binds NADP^+ much less tightly than NADPH | – |
| – | Cc1cc2nc3c(=O)[nH]c(=O)nc-3n(C[C@H](O)[C@H](O)[C@H](O)COP(=O)(O)OP(=O)(O)OC[C@H]3O[C@@H](n4cnc5c(N)ncnc54)[C@H](O)[C@@H]3O)c2cc1C [flavin adenine dinucleotide] | – | – | release of its prosthetic group, flavin adenine dinucleotide (FAD), upon denaturation |
